Measured values from patent publication US20250186442A1, “Obicetrapib and Ezetimibe Combination Treatment and Fixed Dose Pharmaceutical Compositions” (NewAmsterdam Pharma B.V., priority 2022, published 2025).
Read-outs that look alike come from different tables or passages of the source.

How the values were obtained:
LDL-C = conditions: cited from earlier work
Lp(a) = assay: ROSE2 phase 2b clinical trial - Lp(a); assay type: in vivo, human; conditions: mITT Population; obicetrapib 10 mg, ezetimibe 10 mg
Protocol: (§1) The exploratory objectives of this study include the following: • To evaluate the effect of obicetrapib 10 mg+ezetimibe 10 mg combination therapy and obicetrapib 10 mg monotherapy, when used as an adjunct to high-intensity statin therapy, on non-high-density lipoprotein cholesterol (non-HDL-C), very low-density lipoprotein cholesterol (VLDL-C), HDL-C, TG, ApoE, Lp(a), and HDL-ApoE at Day 84; • To evaluate the effect of obicetrapib 10 mg+ezetimibe 10 mg combination therapy and obicetrapib 10 mg monotherapy, when used as an adjunct to high-intensity statin therapy, on the proportion of participants achieving predefined LDL-C targets at Day 84; • To assess the mean trough plasma levels of obicetrapib 10 mg+ezetimibe 10 mg combination therapy and obicetrapib 10 mg monotherapy at steady state on Days 28, 84, and 112; and • To evaluate the safety and tolerability profiles of obicetrapib 10 mg+ezetimibe 10 mg combination therapy and obicetrapib 10 mg monotherapy, when used as an adjunct to high-intensity statin therapy, assessed by clinical laboratory values and incidence of AEs.
This study will be a placebo-controlled, double-blind, randomized, Phase 2 study to evaluate the efficacy, safety, and tolerability of obicetrapib 10 mg, both in combination with ezetimibe 10 mg and as monotherapy, as an adjunct to high-intensity statin therapy. This study will take place at approximately 20 sites in the United States.
Up to 2 weeks after the Screening Visit, participants will return to the site on Day 1 (Visit 2) and confirm study eligibility before being randomized and beginning treatment. Approximately 114 eligible participants (38 participants per treatment group) will be randomized in a 1:1:1 ratio to 1 of the following treatment groups: • Combination therapy: Obicetrapib 10 mg+ezetimibe 10 mg (administered as one 10 mg obicetrapib tablet and one 10 mg ezetimibe capsule); • Obicetrapib monotherapy: Obicetrapib 10 mg (administered as one 10 mg obicetrapib tablet and 1 placebo capsule); or • Placebo (administered as 1 placebo tablet and 1 placebo capsule).
The exploratory efficacy endpoints include the following: • Percent change from Day 1 to Day 84 in non-HDL-C, VLDL-C, HDL-C, TG, ApoE, Lp(a), and HDL-ApoE for the obicetrapib 10 mg+ezetimibe 10 mg combination treatment group compared with the placebo group and for the obicetrapib 10 mg monotherapy treatment group compared with the placebo group; and • Proportion of participants at Day 84 that achieve LDL-C<2.6 mmol/L (<100 mg/dL), LDL-C<1.8 mmol/L (<70 mg/dL), and LDL-C<1.3 mmol/L (<50 mg/dL) for the obicetrapib 10 mg+ezetimibe 10 mg combination treatment group compared with the placebo group and for the obicetrapib 10 mg monotherapy treatment group compared with the placebo group.
Blood samples for the lipid profile must be obtained under fasting conditions (ie, after the participant has fasted for approximately 10 hours). For the purposes of this study, fasting will be defined as nothing by mouth except water and any essential medications. If a participant is not fasting, the Investigator should reschedule the visit as soon as possible. LDL-C level will be calculated using the Friedewald equation unless TG≥400 mg/dL or LDL-C≤50 mg/dL; in both cases, LDL-C level will be measured directly by preparative ultracentrifugation, also referred to as beta quantification. Additionally, LDL-C will be measured by preparative ultracentrifugation, also referred to as beta quantification, at baseline (Visit 2) and at the end of the 12-week Treatment Period (Visit 4) for all participants.
The Modified ITT (mITT) Population will include all participants in the ITT Population who receive at least 1 dose of any study drug and have a baseline value for the LDL-C assessment. […]

[1] = ROSE2 phase 2b clinical trial - safety and tolerability (adverse events); assay type: in vivo, human; conditions: All Randomized Participants; obicetrapib 10 mg (N = 39), obicetrapib 10 mg + ezetimibe 10 mg (N = 40)
Protocol: as §1
The safety and tolerability profile of obicetrapib 10 mg, both in combination with ezetimibe 10 mg and as monotherapy, will be assessed by clinical laboratory assessments (chemistry and hematology), vital signs, physical examinations, and the incidence of AEs.
An AE can therefore be any unfavorable and/or unintended sign (including an abnormal laboratory finding), symptom, or disease temporally associated with the use of an investigational medicinal product, whether or not related to the investigational medicinal product. All AEs, including observed or volunteered problems, complaints, or symptoms, are to be recorded on the appropriate eCRF.
AEs, which include clinical laboratory assessment variables, will be monitored and documented from the time of first dose of study treatment until completion of Visit 5. Participants should be instructed to report any AE that they experience to the Investigator, whether or not they think the event is due to study drug. Beginning at the date of the first dose of study treatment, Investigators should make an assessment for AEs at each visit and record the event on the appropriate AE eCRF.
The Investigator will assess the severity (intensity) of each AE as mild, moderate, or severe, and will also categorize each AE as to its potential relationship to study drug using the categories of yes or no.
• Mild—An event that is easily tolerated and generally not interfering with normal daily activities. • Moderate—An event that is sufficiently discomforting to interfere with normal daily activities. • Severe—An event that is incapacitating with inability to work or perform normal daily activities.
An AE or adverse reaction is considered serious if, in the view of either the Investigator or Sponsor, it results in any of the following outcomes: • Death; • A life-threatening AE;
The Safety Population will include all participants who receive at least 1 dose of any study drug. Treatment classification will be based on the actual treatment received. The Safety Population will be the primary population used for the safety analyses.

[2] = patients; daily dosing of 10 mg for 12 weeks, alone and with 2 different statins; cited from earlier work
[3] = test system: critical physiological systems; conditions: doses up to 300 mg/kg in rats; cited from earlier work
[4] = healthy volunteers; single doses up to 150 mg and multiple doses up to 25 mg/day for 21 days; cited from earlier work
HDL-C = conditions: TA-8995-03; 10 mg daily dose, mild dyslipidemia; cited from earlier work
Solubility in water = assay type: physicochemical; conditions: in water at 20° C.
Description: Solubility is especially challenging with obicetrapib. […] It would be desirable to have a solid form of obicetrapib that would deliver a larger amount of obicetrapib.

Structure (SMILES): CCOC(=O)N1c2ccc(C(F)(F)F)cc2[C@@H](N(Cc2cc(C(F)(F)F)cc(C(F)(F)F)c2)c2ncc(OCCCC(=O)O)cn2)C[C@H]1CC [Obicetrapib, {4-[(2-{[3,5-bis(trifluoromethyl)benzyl][(2R,4S)-1-(ethoxycarbonyl)-2-ethyl-6-(trifluoromethyl)-1,2,3,4-tetrahydroquinolin-4-yl]amino}pyrimidin-5-yl)oxy]butanoic acid}]
- LDL-C reduction (LDL-C; TA-8995-03, 10 mg daily dose, mild dyslipidemia): 45.4%
- additional reduction in LDL-C (LDL-C; obicetrapib 10 mg on top of atorvastatin 20 mg): 50.3%
- Lp(a) Change from Baseline to Day 84, Mean (Lp(a)): -19.71 nmol/L
- Lp(a) Change from Baseline to Day 84, Median (Lp(a)): -4.50 nmol/L
- Lp(a) Day 84, Mean (Lp(a)): 77.96 nmol/L
- Lp(a) Day 84, Median (Lp(a)): 26.25 nmol/L
- Lp(a) Percent Change from Baseline to Day 84 (%), Mean (Lp(a)): −15.16%
- Lp(a) Percent Change from Baseline to Day 84 (%), Median (Lp(a)): −11.95%
- Primary reason for early study discontinuation: ADVERSE EVENT, (%) [1]: (2.6) %
- Primary reason for treatment discontinuation: ADVERSE EVENT, (%) [1]: (5.1) %
- tolerability [2]: well tolerated
- adverse effect on critical physiological systems [3]: no adverse effect
- tolerability [4]: generally well tolerated
- HDL-C efflux capacity (HDL-C): significant increase
- HDL-C increase (HDL-C): 179.0%
- solubility (Solubility in water): < 100 µg/mL
